target: human PAD4 (hPAD4) (Homo sapiens (Human), UniProt Q9UM07); assay: RFMS Human PAD4 Functional Assay 1; assay type: biochemical; settings: RFMS assay 1; 5 nM hPAD4, 250 μM BAEE substrate, 50 μM calcium, 37° C.
Summary of the method: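 Recombinant hPAD4 (5 nM) was preincubated with compound (top 50 μM, 0.5% DMSO) for 30 min at 37 °C, then reacted with 250 μM BAEE for 90 min at 37 °C in pH 7.5 HEPES buffer with 50 μM calcium and 5 μM TPEN. Product was derivatized with phenyl glyoxal and quantified by RapidFire MS.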

Sequence of human PAD4 (hPAD4) (Q9UM07 whole entry): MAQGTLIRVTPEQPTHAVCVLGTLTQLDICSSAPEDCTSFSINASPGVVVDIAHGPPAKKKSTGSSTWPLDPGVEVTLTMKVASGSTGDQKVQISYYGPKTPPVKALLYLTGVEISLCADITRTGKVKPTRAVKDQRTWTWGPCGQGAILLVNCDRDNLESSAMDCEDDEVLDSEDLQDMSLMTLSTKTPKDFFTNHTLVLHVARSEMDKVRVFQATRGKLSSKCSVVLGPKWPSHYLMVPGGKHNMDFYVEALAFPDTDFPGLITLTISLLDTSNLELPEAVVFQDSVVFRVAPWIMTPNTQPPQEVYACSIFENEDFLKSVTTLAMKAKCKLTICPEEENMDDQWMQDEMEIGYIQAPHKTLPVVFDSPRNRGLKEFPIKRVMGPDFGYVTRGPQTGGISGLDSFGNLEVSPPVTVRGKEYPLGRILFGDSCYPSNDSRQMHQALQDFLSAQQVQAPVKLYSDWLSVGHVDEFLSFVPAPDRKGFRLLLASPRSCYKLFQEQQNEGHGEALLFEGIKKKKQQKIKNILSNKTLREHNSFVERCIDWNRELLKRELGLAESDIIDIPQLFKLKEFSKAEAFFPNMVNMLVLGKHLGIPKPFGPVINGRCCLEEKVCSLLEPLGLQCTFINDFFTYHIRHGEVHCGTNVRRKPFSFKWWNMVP

| Compound | IC50 |
| --- | --- |
| Cc1c(-c2cc3ccc(-c4ccc(N5CCNC5=O)cc4)cc3n2CC2CC2)nn2cc(C(=O)N3CC4CCC3[C@@H]4N)ccc12 (stereo partly drawn) [Example 328, 1-[4-(2-{6-[(7R)-7-Amino-2-azabicyclo[2.2.1]heptane-2-carbonyl]-3-methylpyrazolo[1,5-a]pyridin-2-yl}-1-(cyclopropylmethyl)-1H-indol-6-yl)phenyl]imidazolidin-2-one] | 0.12 µM |
| Cc1c(-c2cc3ccc(-c4ccc(N5CCCC5=O)cc4)cc3n2CC2CC2)nn2cc(C(=O)N3CC4CCC3[C@@H]4N)ccc12 (stereo partly drawn) [Example 329, 1-[4-(2-{6-[(7R)-7-Amino-2-azabicyclo[2.2.1]heptane-2-carbonyl]-3-methylpyrazolo[1,5-a]pyridin-2-yl}-1-(cyclopropylmethyl)-1H-indol-6-yl)phenyl]pyrrolidin-2-one] | 0.05 µM |
| Cc1c(-c2cc3ccc(-c4ccc5cn[nH]c5c4F)cc3n2CC2CC2)nn2cc(C(=O)N3CC4CCC3[C@@H]4N)ccc12 (stereo partly drawn) [Example 330, (7R)-2-{2-[1-(Cyclopropylmethyl)-6-(7-fluoro-1H-indazol-6-yl)-1H-indol-2-yl]-3-methylpyrazolo[1,5-a]pyridine-6-carbonyl}-2-azabicyclo[2.2.1]heptan-7-amine] | 0.15 µM |
| Cc1cc(-c2ccc3cc(-c4nn5cc(C(=O)N6CC7CCC6[C@@H]7N)ccc5c4C)n(CC4CC4)c3c2)c(F)cc1C(N)=O (stereo partly drawn) [Example 331, 4-(2-{6-[(7R)-7-Amino-2-azabicyclo[2.2.1]heptane-2-carbonyl]-3-methylpyrazolo[1,5-a]pyridin-2-yl}-1-(cyclopropylmethyl)-1H-indol-6-yl)-5-fluoro-2-methylbenzamide] | 0.06 µM |
| Cc1c(-c2cc3ccc(-c4ccc5cn[nH]c5c4)cc3n2CC2CC2)nn2cc(C(=O)N3CC4CCC3[C@@H]4N)ccc12 (stereo partly drawn) [Example 332, (7R)-2-{2-[1-(Cyclopropylmethyl)-6-(1H-indazol-6-yl)-1H-indol-2-yl]-3-methylpyrazolo[1,5-a]pyridine-6-carbonyl}-2-azabicyclo[2.2.1]heptan-7-amine] | 0.02 µM |
| Cc1c(-c2cc3ccc(-c4ccc5[nH]ncc5c4)cc3n2CC2CC2)nn2cc(C(=O)N3CC4CCC3[C@@H]4N)ccc12 (stereo partly drawn) [Example 333, (7R)-2-{2-[1-(Cyclopropylmethyl)-6-(1H-indazol-5-yl)-1H-indol-2-yl]-3-methylpyrazolo[1,5-a]pyridine-6-carbonyl}-2-azabicyclo[2.2.1]heptan-7-amine] | 0.02 µM |
| Cc1cc(-c2ccc3cc(-c4nn5cc(C(=O)N6CC7CCC6[C@@H]7N)ccc5c4C)n(CC4CC4)c3c2)ccc1C(N)=O (stereo partly drawn) [Example 334, 4-(2-{6-[(7R)-7-Amino-2-azabicyclo[2.2.1]heptane-2-carbonyl]-3-methylpyrazolo[1,5-a]pyridin-2-yl}-1-(cyclopropylmethyl)-1H-indol-6-yl)-2-methylbenzamide] | 0.12 µM |
| Cc1c(-c2cc3ccc(-c4ccc(C(N)=O)cc4C(F)(F)F)cc3n2CC2CC2)nn2cc(C(=O)N3CC4CCC3[C@@H]4N)ccc12 (stereo partly drawn) [Example 335, 4-(2-{6-[(7R)-7-Amino-2-azabicyclo[2.2.1]heptane-2-carbonyl]-3-methylpyrazolo[1,5-a]pyridin-2-yl}-1-(cyclopropylmethyl)-1H-indol-6-yl)-3-(trifluoromethyl)benzamide] | 0.06 µM |
| Cc1c(-c2cc3ccc(-c4ccc(Cl)c5c(NS(C)(=O)=O)nn(C)c45)cc3n2CC2CC2)nn2cc(C(=O)N3CC4CCC3[C@@H]4N)ccc12 (stereo partly drawn) [Example 337, N-[7-(2-{6-[(7R)-7-Amino-2-azabicyclo[2.2.1]heptane-2-carbonyl]-3-methylpyrazolo[1,5-a]pyridin-2-yl}-1-(cyclopropylmethyl)-1H-indol-6-yl)-4-chloro-1-methyl-1H-indazol-3-yl]methanesulfonamide] | 0.02 µM |
| Cc1c(-c2cc3ccc(-c4ccccc4N4CCNC4=O)cc3n2CC2CC2)nn2cc(C(=O)N3CC4CCC3[C@@H]4N)ccc12 (stereo partly drawn) [Example 338, 1-[2-(2-{6-[(7R)-7-Amino-2-azabicyclo[2.2.1]heptane-2-carbonyl]-3-methylpyrazolo[1,5-a]pyridin-2-yl}-1-(cyclopropylmethyl)-1H-indol-6-yl)phenyl]imidazolidin-2-one] | 0.05 µM |
| Cc1c(-c2cc3ccc(-c4ccc(CNS(C)(=O)=O)cc4)cc3n2CC2CC2)nn2cc(C(=O)N3CCC[C@@H](N)C3)ccc12 [Example 342, N-{[4-(2-{6-[(3R)-3-Aminopiperidine-1-carbonyl]-3-methylpyrazolo[1,5-a]pyridin-2-yl}-1-(cyclopropylmethyl)-1H-indol-6-yl)phenyl]methyl}methanesulfonamide] | 0.93 µM |
| CC(=O)NCc1cccc(-c2ccc3cc(-c4nn5cc(C(=O)N6CCC[C@@H](N)C6)ccc5c4C)n(CC4CC4)c3c2)c1 [Example 343, N-{[3-(2-{6-[(3R)-3-Aminopiperidine-1-carbonyl]-3-methylpyrazolo[1,5-a]pyridin-2-yl}-1-(cyclopropylmethyl)-1H-indol-6-yl)phenyl]methyl}acetamide] | 0.05 µM |
| Cc1c(-c2cc3ccc(-c4cccc(CO)c4)cc3n2CC2CC2)nn2cc(C(=O)N3CCC[C@@H](N)C3)ccc12 [Example 344, [3-(2-{6-[(3R)-3-Aminopiperidine-1-carbonyl]-3-methylpyrazolo[1,5-a]pyridin-2-yl}-1-(cyclopropylmethyl)-1H-indol-6-yl)phenyl]methanol] | 0.47 µM |
| Cc1c(-c2cc3ccc(-c4ccc5[nH]ccc5c4)cc3n2CC2CC2)nn2cc(C(=O)N3CCC[C@@H](N)C3)ccc12 [Example 345, (3R)-1-{2-[1′-(Cyclopropylmethyl)-1H,1′H-[5,6′-biindole]-2′-yl]-3-methylpyrazolo[1,5-a]pyridine-6-carbonyl}piperidin-3-amine] | 0.79 µM |
| Cc1c(-c2ccc3cc(-c4nn5cc(C(=O)N6CCC[C@@H](N)C6)ccc5c4C)n(CC4CC4)c3c2)cc(F)c2[nH]c(=O)ccc12 [Example 346, 6-(2-{6-[(3R)-3-Aminopiperidine-1-carbonyl]-3-methylpyrazolo[1,5-a]pyridin-2-yl}-1-(cyclopropylmethyl)-1H-indol-6-yl)-8-fluoro-5-methyl-1,2-dihydroquinolin-2-one] | 0.06 µM |

Now from value to compound:

| IC50 | Compound |
| --- | --- |
| 0.29 µM | Cc1c(-c2cc3ccc(-c4ccc(NS(C)(=O)=O)cc4)cc3n2CC2CC2)nn2cc(C(=O)N3CCC[C@@H](N)C3)ccc12 [Example 347, N-[4-(2-{6-[(3R)-3-Aminopiperidine-1-carbonyl]-3-methylpyrazolo[1,5-a]pyridin-2-yl}-1-(cyclopropylmethyl)-1H-indol-6-yl)phenyl]methanesulfonamide] |
| 0.14 µM | CC(=O)Nc1ccc(-c2ccc3cc(-c4nn5cc(C(=O)N6CCC[C@@H](N)C6)ccc5c4C)n(CC4CC4)c3c2)cn1 [Example 348, N-[5-(2-{6-[(3R)-3-Aminopiperidine-1-carbonyl]-3-methylpyrazolo[1,5-a]pyridin-2-yl}-1-(cyclopropylmethyl)-1H-indol-6-yl)pyridin-2-yl]acetamide] |
| 0.1 µM | Cc1c(-c2cc3ccc(-c4ccn5c(C)nnc5c4)cc3n2CC2CC2)nn2cc(C(=O)N3CCC[C@@H](N)C3)ccc12 [Example 349, (R)-(3-Aminopiperidin-1-yl)(2-(1-(cyclopropylmethyl)-6-(3-methyl-[1,2,4]triazolo[4,3-a]pyridin-7-yl)-1H-indol-2-yl)-3-methylpyrazolo[1,5-a]pyridin-6-yl)methanone] |
| 0.03 µM | Cc1c(-c2cc3ccc(N4CCOCC4)cc3n2CC2CC2)nn2cc(C(=O)N3CC4CCC3[C@@H]4N)ccc12 (stereo partly drawn) [Example 350, (7R)-2-{2-[1-(Cyclopropylmethyl)-6-(morpholin-4-yl)-1H-indol-2-yl]-3-methylpyrazolo[1,5-a]pyridine-6-carbonyl}-2-azabicyclo[2.2.1]heptan-7-amine] |
| 0.1 µM | Cc1c(-c2cc3ccc(N4CCC(S(C)(=O)=O)CC4)cc3n2CC2CC2)nn2cc(C(=O)N3CC4CCC3[C@@H]4N)ccc12 (stereo partly drawn) [Example 351, (7R)-2-{2-[1-(Cyclopropylmethyl)-6-(4-methanesulfonylpiperidin-1-yl)-1H-indol-2-yl]-3-methylpyrazolo[1,5-a]pyridine-6-carbonyl}-2-azabicyclo[2.2.1]heptan-7-amine] |
| 0.81 µM | COC(=O)N(C)C1CCN(c2ccc3cc(-c4nn5cc(C(=O)N6C[C@H](N)C[C@@H](F)C6)ccc5c4C)n(CC4CC4)c3c2)CC1 [Example 352, Methyl N-[1-(2-{6-[(3R,5R)-3-amino-5-fluoropiperidine-1-carbonyl]-3-methylpyrazolo[1,5-a]pyridin-2-yl}-1-(cyclopropylmethyl)-1H-indol-6-yl)piperidin-4-yl]-N-methylcarbamate] |
| 0.61 µM | CC(=O)N(C)C1CCN(c2ccc3cc(-c4nn5cc(C(=O)N6C[C@H](N)C[C@@H](F)C6)ccc5c4C)n(CC4CC4)c3c2)CC1 [Example 353, N-[1-(2-{6-[(3R,5R)-3-Amino-5-fluoropiperidine-1-carbonyl]-3-methylpyrazolo[1,5-a]pyridin-2-yl}-1-(cyclopropylmethyl)-1H-indol-6-yl)piperidin-4-yl]-N-methylacetamide] |
| 0.15 µM | Cc1c(-c2cc3ccc(N4CCC(N(C)S(C)(=O)=O)CC4)cc3n2CC2CC2)nn2cc(C(=O)N3C[C@H](N)C[C@@H](F)C3)ccc12 [Example 354, N-[1-(2-{6-[(3R,5R)-3-Amino-5-fluoropiperidine-1-carbonyl]-3-methylpyrazolo[1,5-a]pyridin-2-yl}-1-(cyclopropylmethyl)-1H-indol-6-yl)piperidin-4-yl]-N-methylmethanesulfonamide] |
| 0.02 µM | Cc1c(-c2cc3ccc(N4CCC(C(=O)N5CCCC5)CC4)cc3n2CC2CC2)nn2cc(C(=O)N3C[C@H](N)C[C@@H](F)C3)ccc12 [Example 355, (3R,5R)-1-{2-[1-(Cyclopropylmethyl)-6-[4-(pyrrolidine-1-carbonyl)piperidin-1-yl]-1H-indol-2-yl]-3-methylpyrazolo[1,5-a]pyridine-6-carbonyl}-5-fluoropiperidin-3-amine] |
